Results: patent US12453709B2, “Compositions and methods for treating autism” (priority 2013, dated 2025)

Assays:
[1] = system: patients qualified under the DSM-5 definition of autism; test: Example 4: Aberrant Behavior Checklist-Community (ABC-C); format: in vivo, human; conditions: for ABC irritability / ABC lethargy / ABC speech / ABC stereotypy / ABC hyperactivity / ABC TOTAL: PT RS; for ABC irritability: initial 3; for ABC lethargy: initial 6; for ABC speech: initial 8; for ABC TOTAL: initial 53
Description: (§1) α-methyl-DL tyrosine (AMPT) was administered to 3 patients. This group of patients was qualified under the DSM-5 definition of autism and treated. The Aberrant Behavior Checklist-Community (ABC-C), Autism Diagnostic Observation Schedule (ADOS), Conners Parent Rating Scale (CPRS), and General Clinical Impressions scale were used to assess the disease. Videos were taken at each visit.

[2] = system: patients qualified under the DSM-5 definition of autism; test: Example 4: DSM-V score; format: in vivo, human; design: DSM-V TOTAL / DSM-V social / DSM-V communication / DSM-V relationships / DSM-V behavior: scale not given here; conditions: for DSM V relationships / DSM V communication / DSM V social / DSM V behavior / DSM V TOTAL: PT RS; for DSM V relationships: initial 1; for DSM V communication / DSM V social: initial 5; for DSM V TOTAL: initial 21
Description: as §1

## CC(N)(Cc1ccc(O)cc1)C(=O)O (racemic) [L1-79, α-methyl-DL-tyrosine]
[1]; PT LR, Day 7, initial 5
  ABC-C speech: 7
[1]; PT LR, Day 7, initial 13
  ABC-C stereotypy: 5
[1]; PT LR, Day 7, initial 21
  ABC-C irritability: 16
[1]; PT LR, Day 7, initial 31
  ABC-C lethargy: 12
[1]; PT LR, Day 7, initial 34
  ABC-C hyperactivity: 31
[1]; PT LR, Day 7, initial 114
  ABC-C TOTAL: 71
[1]; PT LR, Day 14, initial 5
  ABC-C speech: 7
[1]; PT LR, Day 14, initial 13
  ABC-C stereotypy: 0
[1]; PT LR, Day 14, initial 21
  ABC-C irritability: 16
[1]; PT LR, Day 14, initial 31
  ABC-C lethargy: 8
[1]; PT LR, Day 14, initial 34
  ABC-C hyperactivity: 24
[1]; PT LR, Day 14, initial 114
  ABC-C TOTAL: 55
[1]; PT LR, Day 21, initial 5
  ABC-C speech: 7
[1]; PT LR, Day 21, initial 13
  ABC-C stereotypy: 0
[1]; PT LR, Day 21, initial 21
  ABC-C irritability: 16
[1]; PT LR, Day 21, initial 31
  ABC-C lethargy: 7
[1]; PT LR, Day 21, initial 34
  ABC-C hyperactivity: 23
[1]; PT LR, Day 21, initial 114
  ABC-C TOTAL: 53
[1]; PT LR, Day 28, initial 5
  ABC-C speech: 7
[1]; PT LR, Day 28, initial 13
  ABC-C stereotypy: 0
[1]; PT LR, Day 28, initial 21
  ABC-C irritability: 16
[1]; PT LR, Day 28, initial 31
  ABC-C lethargy: 7
[1]; PT LR, Day 28, initial 34
  ABC-C hyperactivity: 23
[1]; PT LR, Day 28, initial 114
  ABC-C TOTAL: 53
[1]; Day 7
  ABC irritability: 3
  ABC lethargy: 3
  ABC speech: 3
  ABC TOTAL: 28
[1]; Day 7, initial 16
  ABC stereotypy: 11
[1]; Day 7, initial 20
  ABC hyperactivity: 8
[1]; Day 14
  ABC irritability: 1
  ABC lethargy: 1
  ABC speech: 3
  ABC TOTAL: 20
[1]; Day 14, initial 16
  ABC stereotypy: 9
[1]; Day 14, initial 20
  ABC hyperactivity: 6
[1]; Day 21
  ABC irritability: 1
  ABC lethargy: 1
  ABC speech: 3
  ABC TOTAL: 20
[1]; Day 21, initial 16
  ABC stereotypy: 9
[1]; Day 21, initial 20
  ABC hyperactivity: 6
[1]; Day 28
  ABC irritability: 1
  ABC lethargy: 1
  ABC speech: 3
  ABC TOTAL: 20
[1]; Day 28, initial 16
  ABC stereotypy: 9
[1]; Day 28, initial 20
  ABC hyperactivity: 6
[1]; PT WC, Day 7, initial 1
  ABC-C speech: 0
[1]; PT WC, Day 7, initial 12
  ABC-C stereotypy: 7
[1]; PT WC, Day 7, initial 16
  ABC-C irritability: 4
[1]; PT WC, Day 7, initial 20
  ABC-C hyperactivity: 10
[1]; PT WC, Day 7, initial 21
  ABC-C lethargy: 9
[1]; PT WC, Day 7, initial 70
  ABC-C TOTAL: 30
[1]; PT WC, Day 14, initial 1
  ABC-C speech: 0
[1]; PT WC, Day 14, initial 12
  ABC-C stereotypy: 6
[1]; PT WC, Day 14, initial 16
  ABC-C irritability: 2
[1]; PT WC, Day 14, initial 20
  ABC-C hyperactivity: 7
[1]; PT WC, Day 14, initial 21
  ABC-C lethargy: 3
[1]; PT WC, Day 14, initial 70
  ABC-C TOTAL: 18
[1]; PT WC, Day 21, initial 1
  ABC-C speech: 0
[1]; PT WC, Day 21, initial 12
  ABC-C stereotypy: 6
[1]; PT WC, Day 21, initial 16
  ABC-C irritability: 2
[1]; PT WC, Day 21, initial 20
  ABC-C hyperactivity: 7
[1]; PT WC, Day 21, initial 21
  ABC-C lethargy: 2
[1]; PT WC, Day 21, initial 70
  ABC-C TOTAL: 17
[1]; PT WC, Day 28, initial 1
  ABC-C speech: 0
[1]; PT WC, Day 28, initial 12
  ABC-C stereotypy: 6
[1]; PT WC, Day 28, initial 16
  ABC-C irritability: 2
[1]; PT WC, Day 28, initial 20
  ABC-C hyperactivity: 7
[1]; PT WC, Day 28, initial 21
  ABC-C lethargy: 2
[1]; PT WC, Day 28, initial 70
  ABC-C TOTAL: 17
[2]; PT LR, Day 7, initial 9
  DSM-V social: 5
[2]; PT LR, Day 7, initial 10
  DSM-V communication: 4
[2]; PT LR, Day 7, initial 11
  DSM-V relationships: 4
[2]; PT LR, Day 7, initial 12
  DSM-V behavior: 12
[2]; PT LR, Day 7, initial 42
  DSM-V TOTAL: 27
[2]; PT LR, Day 14, initial 9
  DSM-V social: 3
[2]; PT LR, Day 14, initial 10
  DSM-V communication: 3
[2]; PT LR, Day 14, initial 11
  DSM-V relationships: 3
[2]; PT LR, Day 14, initial 12
  DSM-V behavior: 12
[2]; PT LR, Day 14, initial 42
  DSM-V TOTAL: 21
[2]; PT LR, Day 21, initial 9
  DSM-V social: 2
[2]; PT LR, Day 21, initial 10
  DSM-V communication: 2
[2]; PT LR, Day 21, initial 11
  DSM-V relationships: 2
[2]; PT LR, Day 21, initial 12
  DSM-V behavior: 12
[2]; PT LR, Day 21, initial 42
  DSM-V TOTAL: 18
[2]; PT LR, Day 28, initial 9
  DSM-V social: 2
[2]; PT LR, Day 28, initial 10
  DSM-V communication: 2
[2]; PT LR, Day 28, initial 11
  DSM-V relationships: 2
[2]; PT LR, Day 28, initial 12
  DSM-V behavior: 12
[2]; PT LR, Day 28, initial 42
  DSM-V TOTAL: 18
[2]; Day 7
  DSM V relationships: 0
  DSM V communication: 4
  DSM V social: 3
  DSM V TOTAL: 15
[2]; Day 7, initial 10
  DSM V behavior: 8
[2]; Day 14
  DSM V relationships: 0
  DSM V communication: 1.5
  DSM V social: 1.5
  DSM V TOTAL: 8
[2]; Day 14, initial 10
  DSM V behavior: 5
[2]; Day 21
  DSM V relationships: 0
  DSM V communication: 1.5
  DSM V social: 1
  DSM V TOTAL: 6.5
[2]; Day 21, initial 10
  DSM V behavior: 4
[2]; Day 28
  DSM V relationships: 0
  DSM V communication: 1.5
  DSM V social: 1
  DSM V TOTAL: 5.5
[2]; Day 28, initial 10
  DSM V behavior: 3
[2]; PT WC, Day 7, initial 3
  DSM-V communication: 0
[2]; PT WC, Day 7, initial 6
  DSM-V relationships: 2
  DSM-V social: 6
[2]; PT WC, Day 7, initial 11
  DSM-V behavior: 9
[2]; PT WC, Day 7, initial 26
  DSM-V TOTAL: 17
[2]; PT WC, Day 14, initial 3
  DSM-V communication: 0
[2]; PT WC, Day 14, initial 6
  DSM-V relationships: 2
  DSM-V social: 4
[2]; PT WC, Day 14, initial 11
  DSM-V behavior: 8
[2]; PT WC, Day 14, initial 26
  DSM-V TOTAL: 14
[2]; PT WC, Day 21, initial 3
  DSM-V communication: 0
[2]; PT WC, Day 21, initial 6
  DSM-V relationships: 2
  DSM-V social: 2
[2]; PT WC, Day 21, initial 11
  DSM-V behavior: 8
[2]; PT WC, Day 21, initial 26
  DSM-V TOTAL: 12
[2]; PT WC, Day 28, initial 3
  DSM-V communication: 0
[2]; PT WC, Day 28, initial 6
  DSM-V relationships: 2
  DSM-V social: 2
[2]; PT WC, Day 28, initial 11
  DSM-V behavior: 7
[2]; PT WC, Day 28, initial 26
  DSM-V TOTAL: 11
